This is an account of results in publication PMC7221574 (Molecules, 2020).

One assay concerns MCF-7. The assay can be described thus: In vitro antiproliferative activity, SRB assay, MCF-7. Format: cell-based, human. To be noted: for IC50: human breast adenocarcinoma, 72 h, SRB, mean ± SD. How it is done: (§1) The A549 cell line was purchased from the European Collection of Authenticated Cell Cultures (ECACC, Salisbury, UK). The MCF-7, LoVo and LoVo/DX cell lines was purchased from American Type Culture Collection (ATCC, Manassas, VA, USA). All the cell lines are maintained in the Institute of Immunology and Experimental Therapy (IIET), Wroclaw, Poland.
(§2) Human lung adenocarcinoma cell line was cultured in a mixture of OptiMEM and RPMI 1640 (1:1) medium (IIET, Wroclaw, Poland), supplemented with 5% fetal bovine serum HyClone (GE Healthcare, USA) and 2 mM L-glutamine (Sigma-Aldrich, Germany). Human breast adenocarcinoma cell line was cultured in a mixture of Eagle medium (IIET, Wroclaw, Poland), supplemented with 10% fetal bovine serum, 2 mM L-glutamine, 8 μg/mL insulin and 1% amino acids (Sigma-Aldrich, Germany). Human colon adenocarcinoma cell lines were cultured in a mixture of OptiMEM and RPMI 1640 (1:1) medium (IIET, Wroclaw, Poland), supplemented with 5% fetal bovine serum HyClone (GE Healthcare, USA), 2 mM L-glutamine, 1 mM sodium pyruvate (Sigma-Aldrich, Germany) and 10 μg/100 mL doxorubicin (Accord) for LoVo/DX. Murine embryonic fibroblast cells were cultured in Dulbecco medium (Gibco), supplemented with 10% fetal bovine serum (GE Healthcare, USA) and 2 mM L-glutamine (Sigma-Aldrich, Germany). All culture media contained antibiotics: 100 U/mL penicillin (Polfa-Tarchomin, Poland) and 0.1 mg/mL streptomycin (Sigma Aldrich, Germany). All cell lines were cultured during entire experiment in humid atmosphere at 37 °C and 5% CO2.
(§3) All cell lines were exposed to each tested agent at different concentrations in the range 100–0.001 μg/mL for 72 h. The cells were also exposed to the reference drug cisplatin (Teva Pharmaceuticals, Poland) and doxorubicin (Accord Healthcare Limited, UK). Additionally, all cell lines were exposed to DMSO (solvent used for tested compounds) (POCh, Poland) at concentrations corresponding to those present in dilutions of tested agents. After 72 h sulforhodamine B assay (SRB) was performed.
(§4) After 72 h of incubation with the tested compounds, the cells were fixed in situ by gently adding of 50 μL per well of cold 50% trichloroacetic acid TCA (POCh, Poland) and were incubated at room temperature for one hour. Then the wells were washed four times with water and air dried. Next, 50 μL of 0.1% solution of sulforhodamine B (Sigma-Aldrich, Germany) in 1% acetic acid (POCh, Poland) were added to each well and were incubated at room temperature for 0.5 h. After incubation time, unbound dye was removed by washing plates four times with 1% acetic acid, whereas the stain bound to cells was solubilized with 150 μL of 10 mM Tris base (Sigma-Aldrich, Germany). Absorbance of each solution was read from a Synergy H4 Hybrid Multi-Mode Microplate Reader (BioTek Instruments, USA) at the 540 nm wavelength.
On the technique in general: The SRB assay estimates cell density from bound dye.

The test system of a further assay is LoVo/DX. The assay can be described thus: cells. Format: cell-based, human. As to conditions: for IC50: Homo sapiens, LoVo/DX, 72 h, read-out: IC50 LoVo/DX; for RI (resistance index): RI = (IC50 for LoVo/DX)/(IC50 for LoVo). The procedure: as §1, §2, §3, §4
In another assay the test system is LoVo. The assay can be described thus: In vitro antiproliferative activity, SRB assay, LoVo. To be noted: 72 h, human colon adenocarcinoma, SRB, mean ± SD. Format: cell-based, human. How it is done:
as §1, §2, §3, §4

A further assay has as its system BALB/3T3. The assay can be described thus: In vitro antiproliferative activity, SRB assay, normal fibroblasts BALB/3T3. Format: cell-based, murine. To be noted: Mus musculus, BALB/3T3; normal murine embryonic fibroblasts, 72 h, SRB, mean ± SD. How it is done: as §1, §2, §3, §4
A further assay deals with A549. The assay can be described thus: In vitro antiproliferative activity, SRB assay, A549. Format: cell-based, human. As to conditions: human lung adenocarcinoma, 72 h, SRB, mean ± SD. The procedure:
as §1, §2, §3, §4

Where two headings read alike, the source gives them in different places.

For `CNc1ccc2c(cc1=O)C(NS(=O)(=O)N(C)C)CCc1cc(OC)c(OC)c(OC)c1-2` (stereo not shown) [Compound 18], the IC50 in the assay with MCF-7 (Homo sapiens, MCF7, 72 h) was 9.3 to 15.5 nM; in the assay on MCF-7, 15.5 ± 1.7 nM; in the assay with LoVo/DX, 540 ± 107 nM; in the assay on LoVo (Homo sapiens, LoVo), 9.3 to 15.5 nM; with LoVo, 9.3 ± 1.1 nM; in the assay with BALB/3T3 it was 14.2 ± 13.2 nM. Besides, the IC50 in the assay on A549 (Homo sapiens, A549, 72 h) is 9.3 to 15.5 nM; with A549, 10.6 ± 0.6 nM. The “RI (resistance index)” value with LoVo/DX came out at 57.8.

As to `C=CS(=O)(=O)NC1CCc2cc(OC)c(OC)c(OC)c2-c2ccc(NC)c(=O)cc21` (stereo not shown) [Compound 19], the IC50 in the assay with MCF-7 (Homo sapiens, MCF7, 72 h) was determined as 13 ± 4.3 nM; in the assay with LoVo/DX, 307 ± 145 nM; in the assay on LoVo (Homo sapiens, LoVo) it was 8.4 ± 0.7 nM; with BALB/3T3, 8.3 ± 3.8 nM; in the assay with A549 (Homo sapiens, A549, 72 h), 11.4 ± 1.7 nM. The “RI (resistance index)” value with LoVo/DX is 36.7.

For `CNc1ccc2c(cc1=O)C(NS(=O)(=O)CCN1CCOCC1)CCc1cc(OC)c(OC)c(OC)c1-2` (stereo not shown) [Compound 20], the IC50 was determined as 150 ± 25.3 nM in the assay on MCF-7 (Homo sapiens, MCF7, 72 h); 44400 ± 23900 nM in the assay on LoVo/DX; 268 ± 94 nM in the assay on LoVo (Homo sapiens, LoVo); 991 ± 280 nM with BALB/3T3; 800 ± 130 nM with A549 (Homo sapiens, A549, 72 h). Besides, the “selectivity index (SI) MCF-7” value with MCF-7 (SI = (IC50 BALB/3T3)/(IC50 MCF-7)) is 6.6. For the same compound, the “RI (resistance index)” value in the assay with LoVo/DX is recorded as 165.4.

For the compound `CNc1ccc2c(cc1=O)[C@@H](NS(=O)(=O)c1ccc(C(F)(F)F)cc1)CCc1cc(OC)c(OC)c(OC)c1-2` [Compound 21], the IC50 in the assay with MCF-7 (Homo sapiens, MCF7, 72 h) is 134 ± 41.5 nM; with LoVo/DX, 6120 ± 825 nM; in the assay with LoVo (Homo sapiens, LoVo) it was 73.5 ± 15.7 nM; with BALB/3T3 it was 87.6 ± 13.5 nM; in the assay with A549 (Homo sapiens, A549, 72 h), 85.5 ± 5.4 nM. Further, the “RI (resistance index)” value in the assay with LoVo/DX was determined as 83.3.

On to `COc1cccc2c1C(=O)c1c(O)c3c(c(O)c1C2=O)C[C@@](O)(C(=O)CO)C[C@@H]3O[C@H]1C[C@H](N)[C@H](O)[C@H](C)O1` [Doxorubicin, reference compound], for which the IC50 in the assay with MCF-7 (Homo sapiens, MCF7, 72 h) was 204 ± 47.8 nM; in the assay with LoVo/DX (doxorubicin-resistant colon adenocarcinoma subline, SRB, mean ± SD), 8730 ± 2540 nM; in the assay on LoVo (Homo sapiens, LoVo) it was 99.4 ± 41 nM; in the assay with BALB/3T3 it was 149 ± 127 nM; in the assay with A549 (Homo sapiens, A549, 72 h), 142 ± 46 nM. Besides, the “RI (resistance index)” value in the assay with LoVo/DX was determined as 87.9.
